# Test results reported in patent publication US11932634B2 (Gilead Sciences, Inc., priority 2021, dated 2024).
# Assays:
# human DGKα = biological target: T1, human DGKα (Homo sapiens, UniProt P23743); experiment: DGKα Biochemical Activity Assay (ADP-Glo);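 note: recombinant enzyme converting diacylglycerol in lipid micelles with ATP, ADP formed detected by luminescence, IC50 from a four-parameter nonlinear fit, geometric mean across experiments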
# T1 construct: purchased Carna Biosciences'; inferred from the same paragraph's 'obtained from Carna Biosciences')
# [1] = tested on: Jurkat NFκB-luciferase cells; experiment: Jurkat NFκB-Luciferase Assay; format: cell-based; conditions: Homo sapiens; Jurkat NFκB-luciferase cells activated with anti-CD3 antibody (OKT3), 2.5 hrs at 37° C., One-Glo Ex; geometric mean; read-out: DGK NFKb Luciferase EC50;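 note: bioluminescence read-out normalized to DMSO basal activation and to maximum enhancement at 1 µM compound, rising signal indicating stronger T-cell activation through DGKα inhibition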
# Procedure: The activity of compounds was tested in a cell based NFκB reporter assay. Jurkat cells that are stably expressing a luciferase reporter construct under the transcriptional control of a NFκB reporter element were activated with an anti-CD3 antibody and luciferase levels were measured with a bioluminescence readout.
# The day after, the excess antibody was washed out five times with 100 ul/well of assay medium (RPMI supplemented with 10% fetal bovine serum) using a Biotek EL406 instrument and leaving 20 µl of residual volume in each well. Jurkat NFκB-luciferase cells (Promega #) were harvested and diluted to 1 million cells/ml in assay medium. Sixty nanoliters of test compound dissolved in DMSO at various concentrations were dispensed into 384-well v-bottom polypropylene plates (Greiner) using a Labcyte Echo instrument. Thirty microliters of medium containing the Jurkat NFκB-luciferase cells were then dispensed using a Biotek MicroFlo instrument in each well of the compound-containing plate. The medium/cell/compound mixture was mixed with a Bravo instrument and 20 ul/well of the mixture was transferred to the anti-CD3-coated plate. The assay mixture was then incubated for 2.5 hrs at 37° C. followed by equilibration at 25° C. for 30 min. Forty microliters of One-Glo Ex (Promega) was then added to the assay mixture and luciferase activity was read on a Envision plate reader 7 minutes later.
# Bioluminescence data were normalized based on maximum enhancement (1 micromolar of compound) and on basal activation (DMSO) controls. Least squares curve fittings were performed using a four-parameter variable slope nonlinear regression model. […] EC50 values from multiple experiments were averaged by geometric mean and the standard deviation was calculated.
# T1 sequence (P23743 whole entry): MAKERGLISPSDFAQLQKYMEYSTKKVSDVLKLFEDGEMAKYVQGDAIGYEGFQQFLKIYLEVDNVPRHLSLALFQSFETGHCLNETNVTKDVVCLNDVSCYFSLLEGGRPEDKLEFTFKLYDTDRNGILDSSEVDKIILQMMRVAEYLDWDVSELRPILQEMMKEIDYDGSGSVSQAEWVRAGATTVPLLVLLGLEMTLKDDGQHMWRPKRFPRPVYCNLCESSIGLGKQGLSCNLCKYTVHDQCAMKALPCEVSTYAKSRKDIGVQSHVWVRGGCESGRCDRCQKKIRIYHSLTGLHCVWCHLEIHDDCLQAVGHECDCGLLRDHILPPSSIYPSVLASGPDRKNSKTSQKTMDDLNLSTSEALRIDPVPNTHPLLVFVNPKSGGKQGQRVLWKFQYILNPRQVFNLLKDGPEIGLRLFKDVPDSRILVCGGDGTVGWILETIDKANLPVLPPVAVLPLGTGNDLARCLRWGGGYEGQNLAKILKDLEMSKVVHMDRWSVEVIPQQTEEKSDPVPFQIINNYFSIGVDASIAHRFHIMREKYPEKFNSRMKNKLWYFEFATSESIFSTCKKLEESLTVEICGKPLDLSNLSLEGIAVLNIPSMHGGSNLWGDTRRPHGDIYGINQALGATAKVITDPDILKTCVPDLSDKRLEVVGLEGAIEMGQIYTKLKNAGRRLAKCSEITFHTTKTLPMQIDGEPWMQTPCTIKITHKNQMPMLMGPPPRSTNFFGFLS
SMILES,IC50 (human DGKα),EC50 [1]
"CC(C)(C#Cc1cccc(N(CC(F)F)c2nc(=O)[nH]c3cccc(F)c23)c1F)C(F)F [Example 63, 4-[3-(4,4-difluoro-3,3-dimethyl-but-1-ynyl)-N-(2,2-difluoroethyl)-2-fluoro-anilino]-5-fluoro-1H-quinazolin-2-one]",282 nM,1.51 nM
"[2H]C([2H])([2H])n1c(=O)nc(N(CC(F)F)c2ccnc(C#CC3(C(F)(F)F)CC3)c2F)c2c(F)cccc21 [Example 124, 4-[2,2-difluoroethyl-[3-fluoro-2-[2-[1-(trifluoromethyl)cyclopropyl]ethynyl]-4-pyridyl]amino]-5-fluoro-1-(trideuteriomethyl)quinazolin-2-one]",12 nM,1.27 nM
"CN(c1cccc(-c2ccc(N3CCCC3)nc2)c1)c1nc(=O)[nH]c2cc(Cl)ccc12 [Example 6, 7-chloro-4-[N-methyl-3-(6-pyrrolidin-1-yl-3-pyridyl)anilino]-1H-quinazolin-2-one]",84.5 nM,2.24 nM
"[2H]C([2H])([2H])n1c(=O)nc(N2CCCc3c2ccnc3C#CC2(C(F)(F)F)CC2)c2c(F)cccc21 [Example 142, 5-fluoro-1-(trideuteriomethyl)-4-[5-[2-[1-(trifluoromethyl)cyclopropyl]ethynyl]-3,4-dihydro-2H-1,6-naphthyridin-1-yl]quinazolin-2-one]",8.91 nM,8.25 nM
"O=c1nc(N2CCCc3c(C#CC4(C(F)(F)F)CC4)cccc32)c2c(F)cccc2[nH]1 [Example 19, 5-fluoro-4-[5-[2-[1-(trifluoromethyl)cyclopropyl]ethynyl]-3,4-dihydro-2H-quinolin-1-yl]-1H-quinazolin-2-one]",62.5 nM,0.63 nM
"[2H]C([2H])([2H])n1c(=O)nc(N2CCOCc3c(C#CC4(C)COC4)cccc32)c2c(F)cccc21 [Example 101, 5-fluoro-1-(methyl-d3)-4-(6-((3-methyloxetan-3-yl)ethynyl)-2,3-dihydrobenzo[e][1,4]oxazepin-1(5H)-yl)quinazolin-2(1H)-one]",2.62 nM,4.09 nM
"CN(c1cccc(C#CC2(C(F)(F)F)CC2)c1)c1nc(=O)n(C)c2cc(Cl)ccc12 [Example 8, 7-chloro-1-methyl-4-[N-methyl-3-[2-[1-(trifluoromethyl)cyclopropyl]ethynyl]anilino]quinazolin-2-one]",12.4 nM,0.489 nM
"CC(C)(C#Cc1cccc2c1COCCN2c1nc(=O)[nH]c2cccc(F)c12)NC(=O)C1(C(F)(F)F)CC1 [Example 158, N-(4-(1-(5-fluoro-2-oxo-1,2-dihydroquinazolin-4-yl)-1,2,3,5-tetrahydrobenzo[e][1,4]oxazepin-6-yl)-2-methylbut-3-yn-2-yl)-1-(trifluoromethyl)cyclopropane-1-carboxamide]",9.31 nM,11 nM
"[2H]C([2H])([2H])n1c(=O)nc(N2CCCOc3c(C#CC4(C)CC4)cccc32)c2c(F)cccc21 [Example 84, 5-fluoro-4-[9-[2-(1-methylcyclopropyl)ethynyl]-3,4-dihydro-2H-1,5-benzoxazepin-5-yl]-1-(trideuteriomethyl)quinazolin-2-one]",3.67 nM,0.461 nM
CC(C)(C#N)C#Cc1cccc2c1COCCN2c1nc(=O)[nH]c2c(F)cc(F)cc12 [Example 104],4.88 nM,5.21 nM
"CC(C)(C#N)C#Cc1cccc2c1COCCN2c1nc(=O)[nH]c2ccc(F)c(F)c12 [Example 91, 4-[1-(5,6-difluoro-2-oxo-1H-quinazolin-4-yl)-3,5-dihydro-2H-4,1-benzoxazepin-6-yl]-2,2-dimethyl-but-3-ynenitrile]",5.24 nM,2.67 nM
"CC(C)(C#Cc1cccc(N(CC(F)F)c2nc(=O)[nH]c3ccc(F)cc23)c1F)C(F)(F)F [Example 49, 4-[N-(2,2-difluoroethyl)-2-fluoro-3-(4,4,4-trifluoro-3,3-dimethyl-but-1-ynyl)anilino]-6-fluoro-1H-quinazolin-2-one]",296 nM,5.3 nM
